PMC4467461, “Small-molecule activation of SERCA2a SUMOylation for the treatment of heart failure” (Nature Communications, 2015)
Entries after “also recorded” stand apart in the source; their conditions may differ.

Experiments:
SERCA2a = SERCA2a ATPase activity assay (coupled enzyme) in cardiomyocytes; type: cell-based, Sprague–Dawley rats
Procedure: Figure 1 N106 increases SERCA2a’s cellular activity and SUMOylation in adult cardiomyocytes. In-vitro characterization of activators of SERCA2a SUMOylation. Cell-based screening of small molecules identified one promising compound. Adult ventricular cardiomyocytes were isolated from Sprague–Dawley rats and treated with small molecules on dose-dependent manner for 24 h. DMSO-treated cardiomyocytes were used as a negative control. (a) Chemical structure of SERCA2a SUMOylation activator. N106, N-(4-methoxybenzo[d]thiazol-2-yl)-5-(4-methoxyphenyl)-1,3,4-oxadiazol-2-amine. (b-g) The effects of N106 compound in cardiomyocyte contractility and calcium transient. The dose-dependent effects of N106 compound presented on peak shortening, the time to maximal departure velocity, the time to maximal return velocity, calcium ratio, decay time constant (τ) and the time to 90% baseline (t90) fluorescence in cardiomyocytes were assessed using a video-based edge-detection system (IonOptix Inc.). n=25 cardiomyocytes from each three of hearts per condition. […] The ATPase activity were measured at 25 °C in 50 mM MOPS, 100 mM KCl, 5 mM MgCl2, 1 mM […] at pCa 5.0 by using a coupled enzyme system consisting of pyruvate kinase and lactate dehydrogenase, and monitoring the oxidation of the reduced form of NADH at […]. The enzyme activity was determined by using same set of cardiomyocytes. […]

sham-operated mice = experiment: Haemodynamic measurements in sham-operated mice; type: in vivo; conditions: sham mice, 0.1, 1, 10 mg kg^−1
Procedure: One day after echocardiography, we performed in-vivo haemodynamics. The mice were anaesthetized with an intraperitoneal injection mixture of urethane (1 mg g^−1), etomidate (10 μg g^−1) and morphine (1 μg g^−1), and were then intubated via a tracheotomy and mechanically ventilated at 7 μl g^−1 tidal volume and 120 respirations per minute. A small incision was made in the apex and a French Millar cathether connected a high-fidelity pressure transducer (Scisense, London, ON, Canada) inserted into the LV. Haemodynamic recordings were performed after 5∼10 min of stable HR. The rate of pressure rise (+dP/dt) and maximal pressure, the time constant of isovolumic relaxation and HR were recorded and analysed. To determine the relative effects of the admittance and conductance techniques to contractility change induced by N106 compound infusion, whole haemodynamic function was recorded at both baseline and after administration of N106 compound through the external jugular vein. N106 compound was solubilized in 10% DMSO (Sigma-Aldrich), 10% Tween-80 (Sigma-Aldrich) and saline for in-vivo experiments. N106 or vehicle solutions were continuously infused through the external jugular vein at a rate of 50 μl min^−1 for 2 min in each dose. Whole haemodynamic functions of increasing dose of N106 of each mouse were recorded for ∼4 h. […]

COc1ccc(-c2nnc(Nc3nc4c(OC)cccc4s3)o2)cc1 [Compound N106, N-(4-methoxybenzo[d]thiazol-2-yl)-5-(4-methoxyphenyl)-1,3,4-oxadiazol-2-amine]
SERCA2a’s ATPase activity, time course (SERCA2a; 10 μM, 10∼30 min, sustained at 24 h): increased
SERCA2a ATPase activity (SERCA2a; increasing N106 concentration, 24 h, pCa 5.0): increased
effect on ESPVR slope, dP/dt max, maximal pressure and heart rate (sham-operated mice): no significant effect; also recorded: not statistically significant
